Test [1] has as its system Plasmodium falciparum. The test is described as follows: Antimalarial activity against Plasmodium falciparum assessed as resistant isolates. It counts as functional.
Test [2] relates to Plasmodium falciparum. The test is described as follows: Antimalarial activity against Plasmodium falciparum assessed as parasite growth inhibition after 48 hrs by [3H]hypoxanthin incorporation assay. It counts as functional, organism-based.

SMILES strings stand for the structures.

As a reminder, the IC50 is the midpoint of a concentration-inhibition curve. As to `C[C@H]1[C@@H](O)O[C@@H]2O[C@@]3(C)CC[C@H]4[C@H](C)CC[C@@H]1[C@@]24OO3` [ARTENIMOL], the Activity in the test with Plasmodium falciparum [1] came out at 0%. In addition, in the test with Plasmodium falciparum [2], the concentration for half-maximal inhibition (IC50) is 0.95 nM.

Regarding `CCN(CC)CCCC(C)Nc1ccnc2cc(Cl)ccc12` (centres undefined) [CHLOROQUINE], the Activity in the test with Plasmodium falciparum [1] is recorded as 3.2%.

As for `CCNCc1cc(Nc2ccnc3cc(Cl)ccc23)ccc1O` [DESETHYL AMODIAQUINE], the Activity in the test with Plasmodium falciparum [1] came out at 0.5%. Also, the IC50 with Plasmodium falciparum [2] was 8.3 nM.

As for `OC(c1cc(C(F)(F)F)nc2c(C(F)(F)F)cccc12)C1CCCCN1` (centres undefined) [MEFLOQUINE], the Activity in the test on Plasmodium falciparum [1] was determined as 0.4%. Further, the IC50 in the test on Plasmodium falciparum [2] was 6.7 nM.

With `C=C[C@H]1CN2CC[C@H]1C[C@H]2[C@H](O)c1ccnc2ccc(OC)cc12` [QUININE], the Activity in the test on Plasmodium falciparum [1] is 0%. Also, in the test on Plasmodium falciparum [2], the IC50 was 53.7 nM.
